Values of other authors in patent US20140328795A1, “VIRUCIDAL SMALL MOLECULE AND USES THEREOF” (The Texas A&M University System, priority 2012, published 2014).

System: HIV
Conditions: VOICE trial among African women; cited from earlier work

C[C@H](Cn1cnc2c(N)ncnc21)OCP(=O)(O)O [tenofovir]
protection against HIV: failed to provide protection against HIV
